# Results taken from patent US9434687B2, “Detection of synthetic cannabinoids” (priority 2011, dated 2016).
# Tests used:
# [1] = system: antiserum raised to Immunogen II (Hapten B-BTG); assay: Competitive ELISA microtiter plate assay, antiserum raised to Immunogen II, conjugate Hapten A-HRP (Example 19); type: binding, sheep
# Experimental: Aqueous solutions of the immunogens prepared in examples 5 and 13 were formulated with Freund's Complete Adjuvant (FCA) to form emulsions consisting of 2 mg/ml Immunogen I and 2 mg/ml of Immunogen II in 50% (v/v) FCA. Three sheep were immunised with each emulsion (1° immunisations), 0.25 ml being intramuscularly injected at four sites in the rump of each animal. Subsequent immunisations (boosts 2-8) contained 1 mg/ml Immunogen I and 1 mg/ml Immunogen II. All boosts were emulsified in 50% (v/v) Freund's Incomplete Adjuvant (FIA) and administered to the appropriate sheep in the same manner as the 1° immunisations, at monthly intervals. Blood sampling took place 7-14 days after each boost. Each sample was processed to produce antiserum, which was further purified by caprylic acid and ammonium sulphate precipitation to yield an immunoglobulin (Ig) fraction. The Ig fraction was evaluated by competitive ELISA microtiter plate assay, as described in example 19 below.
# (a) The wells of an enhanced binding 96 well polystyrene microtiter plate were coated with the Ig fraction of the antiserum raised to Immunogen I (Hapten A-BTG—example 5) and diluted in 10 mM Tris, pH8.5 (125 μl/well). The appropriate antibody coating concentration was determined using standard ELISA checkerboard techniques. The plate was incubated for 2 hours at 37° C., washed 4 times over a 10-minute period with Tris buffered saline containing Tween 20 (TBST) and tapped dry. Standard solutions of JWH synthetic cannabinoids, metabolites and selected molecules were prepared in TBST and 50 μl of each was added to the appropriate wells. 75 μl of conjugate (Hapten A-HRP) diluted in Tris buffer containing EDTA, D-mannitol, sucrose, thimerosal and BSA, was added to each of the wells. The appropriate dilution of conjugate was also determined using standard ELISA checkerboard techniques. The plate was incubated at 25° C. for 1 hour. The excess unbound conjugate was removed by washing 6 times over a 10-minute period with TBST and tapped dry. 125 μl of tetramethylbenzedine (TMB) substrate solution was added to each well of the plate that was then incubated for 15-20 minutes in the dark at room temperature. The reaction was terminated by addition of 125 μl of 0.2M sulphuric acid to each well. The absorbance was then measured at 450 nm using a microtiter plate reader.
# Employing each series of standards, calibration curves were generated and these were used to determine the specificity of the immunoassay for the JWH synthetic cannabinoids, metabolites and selected molecules. The results of this study are presented in Tables 1 to 3, cross-reactivity being calculated according to the following formula: % CR=IC50,JWH-018/IC50,CR×100
# Where % CR is the percentage cross-reactivity, IC50, JWH-018 is the concentration of JWH-018 that causes 50% displacement of signal and IC50, CR is the concentration of JWH synthetic cannabinoid/metabolite/selected molecule that causes 50% displacement of signal.
# Table 1: Data generated from a competitive microtiter plate assay for JWH synthetic cannabinoids and metabolites, employing antiserum raised to Immunogen II (Hapten B-BTG) and conjugate (Hapten A-HRP) as detection reagent.
# (d) The resulting competitive ELISA for synthetic cannabinoids and metabolites was also employed to test for the 5-fluoropentyl derivative of JWH-018, (1-(5-fluoropentyl)indol-3yl (1-naphthyl) methanone (Table 4).
# [2] = system: IgG fraction of antiserum raised to Immunogen II; assay: Competitive ELISA, antibody RS1833B12 to Immunogen II, tracer ESC4555 (Example 36); type: binding, sheep
# [3] = Table 4, Immunogen II, relative to JWH-018
# [4] = Antibody to Immunogen II, cross-reactants at 100 ng/ml, 1000 ng/ml, standard JWH-018
# [5] = Table 1, CR based on 100% for JWH-018
# [6] = Table 1, detecting agent derived from Hapten-A, 40 ng/ml highest concentration tested
SMILES,"% B/B0 [2, 4]","% Cross-reactivity [1, 5]","IC50 [1, 6]",also measured
"O=C(c1cccc2ccccc12)c1cn(CCCCCF)c2ccccc12 [AM-2201, 1-(5-Fluoropentyl)indol-3-yl (1-naphthyl) methanone]",11.72%,–,–,"IC50 ([1]; Table 4, Immunogen II): 0.22 ng/mL; % Cross-reactivity [1, 3]: 908.00%"
"O=C(c1cccc2ccccc12)c1c[nH]c2ccccc12 [N-desalkyl JWH-018, 3-(1-naphthoyl)-1H-Indole]",99.18%,<<5.28%,>>40 ng/ml,–
O=C(c1cccc2ccccc12)c1cn(CCN2CCOCC2)c2ccccc12 [JWH-200],54.02%,127.11%,1.66 ng/mL,–
"CCCCCn1cc(C(=O)c2cccc3ccccc23)c2c(O)cccc21 [4-OH JWH-018, JWH-018 4-hydroxyindole metabolite]",29.49%,23.03%,9.16 ng/mL,–
CCCCCn1cc(C(=O)c2cccc3ccccc23)c2ccccc21 [JWH-018],9.29%,100.00%,2.11 ng/mL,"IC50 ([1]; Table 4, Immunogen II): 1.97 ng/mL; % Cross-reactivity [1, 3]: 100.00%; % B/B0 ([2]; JWH-018 0.625 ng/ml): 68%; % B/B0 ([2]; JWH-018 1.25 ng/ml): 53%; % B/B0 ([2]; JWH-018 2.5 ng/ml): 34%; % B/B0 ([2]; JWH-018 5 ng/ml): 25%; % B/B0 ([2]; JWH-018 10 ng/ml): 17%; % B/B0 ([2]; JWH-018 20 ng/ml): 13%; % B/B0 ([2]; JWH-018 40 ng/ml): 10%; IC50 ([2]; Table 7 standard curve, standard concentration which produces 50% B/B0): 1.333 ng/mL"
"CCCCCn1cc(C(=O)c2cccc3ccccc23)c2ccc(O)cc21 [6-OH JWH-018, JWH-018 6-hydroxyindole metabolite]",24.39%,215.31%,0.98 ng/mL,–
"CCCCCn1cc(C(=O)c2cccc3ccccc23)c2cc(O)ccc21 [5-OH JWH-018, JWH-018 5-hydroxyindole metabolite]",12.14%,130.25%,1.62 ng/mL,–
CCCCCn1cc(C(=O)c2ccc(Cl)c3ccccc23)c2ccccc21 [JWH-398],30.31%,12.02%,17.55 ng/mL,–
O=C(c1cccc2ccccc12)c1cn(CCCCCO)c2ccccc12 [JWH-018 N-(5-hydroxypentyl) metabolite],53.38%,183.48%,1.15 ng/mL,–
O=C(O)CCCCn1cc(C(=O)c2cccc3ccccc23)c2ccccc21 [JWH-018 N-pentanoic acid metabolite],85.61%,38.50%,5.48 ng/mL,–
CCCCn1cc(C(=O)c2cccc3ccccc23)c2ccccc21 [JWH-073],15.24%,135.26%,1.56 ng/mL,–
